Source: patent US20060128792A1, “Deguelin as a chemopreventive agent for lung cancer” (priority 2002, published 2006)
“And” between values parts separate entries of the source, which are not always exact repeats. Equal entries are not always repeated.

What was measured:
[1] = tested on: H1299; test: MTT assay, growth inhibition by deguelin or deguelin derivatives; assay type: cell-based; conditions: H1299, 3 days
[2] = tested on: H441; test: as above; assay type: cell-based; conditions: 3 days
[3] = tested on: caspase-3, PARP, Bax, Bcl-2, Bcl-xL in 1799 cells; test: Western blot of caspase-3, PARP and Bcl family proteins; assay type: cell-based
Procedure: Immunoblotting. Whole cell lysates were prepared in lysis buffer (50 mM N-[2-hydroxymethyl]-piperazine-N′-[2-ethanesulfonic acid] [HEPES; pH 7.5], 150 mM NaCl, 1.5 mM MgCl2, ImM EDTA, 0.2 mM EGTA, 1% NP40, 10% glycerol, 1 mM dithiothreitol (DTT), 1 mM phenylmethylsulfonyl fluoride, 20 mM sodium fluoride, 5 mM sodium orthovanadate, 10 μg/ml aprotinin, 10 μg/ml leupeptin, 2 μg/ml pepstatin, and 1 mM benzamidine) as described previously (Lee et al., 2002). Equivalent protein concentrations were resolved in sodium dodecyl sulfate-polyacrylamide gels and transferred to a nitrocellulose membrane. After the blocking of transblotted membrane in Tris-buffered saline (TBS) containing 0.05% Tween 20 (TBST) and 5% low fat milk, themembrane was incubated with primary antibody at the appropriate dilution in TBS-5% low-fat milk at 4° C. for 16 h and washed with TBST. The immunoblots were visualized using the ECL kit (Amersham, Inc., Arlington Heights, III) according to the manufacturer's directions. Rabbit polyclonal antibodies against human pAkt (Ser473), Akt, and pGSK-3β (Ser9), and mouse monoclonal antibody against human anti-pMAPK (Thr202/Tyr204) were purchased from Cell Signalinng Technology (Beverly, Mass.). Rabbit polyclonal anti-glycogen synthase (GSK)-3 α/β (BD Transduction Laboratories, Lexington, Ky.), rabbit polyclonal anti-Bax and anti-caspase-3 antibodies (Pharmingen, San Diego, Calif.), rabbit polyclonal anti-Bcl2 and rabbit polyclonal anti-poly (ADP-ribose) polymerase O?ARP) antibody (VIC 5) (Roche Molecular Biochemicals, Indianapolis, Ind.), goat antibodies against Erk-1, Erk-2, and β-Actin (Santa Cruz Biotechnology, Inc., Santa Cruz, Calif.) were used for western blot analysis.

[4] = tested on: chorioallantoic membrane (CAM) vessel formation; test: CAM assay, anti-angiogenic activity; assay type: in vivo, chick embryos
Procedure: The anti-angiogenic activity of deguelin was assessed using a CAM assay. Chick embryos were incubation for 3 days after which, about 2 ml of egg albumin was removed from the embryo with a hypodermic needle to allow the CAM and yolk sac to drop away from the shell membrane. On day 3.5, the shell was punched out and removed and the shell membrane was peeled away. […] After the two day incubation period, 500 μl of 10% fat emulsion was injected into the chorioallantoic membrane and observed microscopically.
Retinoic acid, an anti-angiogenic compound, was used as a positive control for determining anti-angiogenic response. […] This independent experiment was repeated three times with more than 20 eggs.

[5] = tested on: 1799 cells; test: Apoptosis assay (TUNEL, APO-BRDU kit, flow cytometry; DNA fragmentation); assay type: cell-based; conditions: for apoptosis in 1799 cells (TUNEL, flow cytometry): 3 days
Procedure: Apoptosis assay. Normal, premalignant, and malignant HBE cells were exposed to v various doses of deguelin for 3 days. […] Both adherent and floating cells were combined for the assessment of apoptosis using the APO-BRDU staining kit (Phoenix Flow Systems, San Diego, Calif.). Briefly, floating and attached cells dispersed with trypsin-EDTA were pelleted, washed, and fixed by 1% paraformaldehyde followed by 70% ethanol. The fixed cells were washed and incubated with DNA-labeling solution containing terminal deoxynucleotidyl transferase (TdT) reaction buffer, TdT enzyme, and bromodeoxyuridine triphosphate (Br-dUTP). Cells were rinsed, resuspended with fluorescein-PRB-I antibody solution, and analyzed by flow cytometry in the presence of PI/RNase solution. All analyses were performed based on 3000 to 10,000 events using a FACScan flow cytometer (Becton Dickinson, San Jose, Calif.) equipped with a 488-nm argon ion laser and CellQuest software. A dual display of DNA area (linear red fluorescence) and Br-dUTP incorporation (FITC-PRB-1) was used to determine the percentage of apoptotic cells.
The percentage of dead cells was determined by fluorescent-activated cell sorting (FACS) analysis of PI-stained nuclei. Apoptosis was also determined by the detection of nucleosomal DNA fragmentation, which was measured using the TACS apoptotic DNA Jaddering kit (Trevigen, Inc., Gaithersburg, Md.) according to the manufacturer's protocol. […] Apoptosis was analyzed using the APO-BRDU staining kit (Phoenix Flow Systems) as described above.

COc1cc2c(cc1OC)[C@@H]1C(=O)c3ccc4c(c3O[C@@H]1CO2)C=CC(C)(C)O4 [Deguelin]
Avg. % con ([1]; deguelin 10^−6M): 0.36 % con | MTT value, mean of replicates (unheaded line) ([1]; deguelin 10^−6M): 0.048 | MTT value, replicate (unheaded line) ([1]; deguelin 10^−6M): 0.052 and 0.043 and 0.049 | Avg. % con ([1]; deguelin 10^−8M): 0.78 % con | MTT value, mean of replicates (unheaded line) ([1]; deguelin 10^−8M): 0.104 | MTT value, replicate (unheaded line) ([1]; deguelin 10^−8M): 0.101 and 0.108 and 0.103 | Avg. % con ([1]; deguelin 10^−10M): 0.73 % con | MTT value, mean of replicates (unheaded line) ([1]; deguelin 10^−10M): 0.098 | MTT value, replicate (unheaded line) ([1]; deguelin 10^−10M): 0.119 and 0.087 and 0.089 | Avg. % con ([1]; deguelin 10^−12M): 0.98 % con | MTT value, mean of replicates (unheaded line) ([1]; deguelin 10^−12M): 0.132 | MTT value, replicate (unheaded line) ([1]; deguelin 10^−12M): 0.121 and 0.136 and 0.138 | Avg. % con ([2]; deguelin 10^−6M): 0.82 % con | MTT value, mean of replicates (unheaded line) ([2]; deguelin 10^−6M): 0.181 | MTT value, replicate (unheaded line) ([2]; deguelin 10^−6M): 0.18 (2×) and 0.183 | Avg. % con ([2]; deguelin 10^−8M): 0.94 % con | MTT value, mean of replicates (unheaded line) ([2]; deguelin 10^−8M): 0.207 | MTT value, replicate (unheaded line) ([2]; deguelin 10^−8M): 0.209 and 0.203 and 0.21 | Avg. % con ([2]; deguelin 10^−10M): 1.01 % con | MTT value, mean of replicates (unheaded line) ([2]; deguelin 10^−10M): 0.223 | MTT value, replicate (unheaded line) ([2]; deguelin 10^−10M): 0.21 and 0.231 and 0.229 | Avg. % con ([2]; deguelin 10^−12M): 1.12 % con | MTT value, mean of replicates (unheaded line) ([2]; deguelin 10^−12M): 0.247 | MTT value, replicate (unheaded line) ([2]; deguelin 10^−12M): 0.234 and 0.259 and 0.249 | Bcl-2 expression [3]: mild decrease | Bcl-xL level [3]: not affected | level of Bax [3]: dose-dependent increase | 32-kDa caspase-3 proenzyme (with increase of 89-kDa PARP fragment) ([3]; more than 10^−8 M deguelin, 3 days): significant decrease | anti-angiogenic activity (percentage of positive eggs) ([4]; 5 nmol/egg, 2 days): 59.2% | egg lethality ([4]; CAM assay, without any signs of thrombosis and hemorrhage): negligible | induction of apoptosis, Ad5CMV-Myr.Akt.HA-infected 1799 cells ([5]; 10^−7 M deguelin, 2 days): less than 10% | induction of apoptosis, uninfected or empty virus-infected 1799 cells ([5]; 10^−7 M deguelin, 2 days): About 40% | apoptosis in 1799 cells (TUNEL, flow cytometry) ([5]; 10^−7 M deguelin): more than 90% | apoptosis in 1799 cells (TUNEL, flow cytometry) ([5]; 10^−8 M deguelin): 68.5% | DNA fragmentation in 1799 cells ([5]; three days of treatment, dose-dependent): induced the generation of nucleosomal-sized ladders of DNA fragments
